Entries after “also recorded” stand apart in the source; their conditions may differ.
Columns and labels:
[1] = target: T1, TAP1/TAP2iso heterodimer (Homo sapiens, UniProt Q03518+Q03519); assay: competition with transport of 125I-Peptide RRYQNSTEL in TAP1/TAP2iso transfectants; type: cell-based; conditions: TAP1/TAP2iso transfectants
T1 construct: expressed in transfected cells
T1 sequence (Q03519 1-653 isoform Q03519-2 L359K/V379I): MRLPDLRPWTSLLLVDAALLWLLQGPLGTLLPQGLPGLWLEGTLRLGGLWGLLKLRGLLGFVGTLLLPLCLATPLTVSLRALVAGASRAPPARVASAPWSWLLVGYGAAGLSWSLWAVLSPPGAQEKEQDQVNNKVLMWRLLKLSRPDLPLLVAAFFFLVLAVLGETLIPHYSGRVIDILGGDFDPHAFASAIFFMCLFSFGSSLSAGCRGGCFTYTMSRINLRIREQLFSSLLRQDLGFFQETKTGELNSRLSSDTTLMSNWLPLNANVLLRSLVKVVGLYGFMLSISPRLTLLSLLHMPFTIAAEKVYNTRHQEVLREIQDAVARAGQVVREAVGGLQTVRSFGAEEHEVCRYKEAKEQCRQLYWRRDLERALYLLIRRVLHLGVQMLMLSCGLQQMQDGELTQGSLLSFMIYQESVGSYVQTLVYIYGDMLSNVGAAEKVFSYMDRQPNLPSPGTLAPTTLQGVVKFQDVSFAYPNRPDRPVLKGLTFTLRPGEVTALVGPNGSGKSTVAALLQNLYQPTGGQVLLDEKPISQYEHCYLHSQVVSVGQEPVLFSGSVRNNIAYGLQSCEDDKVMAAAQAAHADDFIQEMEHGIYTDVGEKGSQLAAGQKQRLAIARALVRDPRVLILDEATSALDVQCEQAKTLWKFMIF
T1 sequence (Q03518 1-748): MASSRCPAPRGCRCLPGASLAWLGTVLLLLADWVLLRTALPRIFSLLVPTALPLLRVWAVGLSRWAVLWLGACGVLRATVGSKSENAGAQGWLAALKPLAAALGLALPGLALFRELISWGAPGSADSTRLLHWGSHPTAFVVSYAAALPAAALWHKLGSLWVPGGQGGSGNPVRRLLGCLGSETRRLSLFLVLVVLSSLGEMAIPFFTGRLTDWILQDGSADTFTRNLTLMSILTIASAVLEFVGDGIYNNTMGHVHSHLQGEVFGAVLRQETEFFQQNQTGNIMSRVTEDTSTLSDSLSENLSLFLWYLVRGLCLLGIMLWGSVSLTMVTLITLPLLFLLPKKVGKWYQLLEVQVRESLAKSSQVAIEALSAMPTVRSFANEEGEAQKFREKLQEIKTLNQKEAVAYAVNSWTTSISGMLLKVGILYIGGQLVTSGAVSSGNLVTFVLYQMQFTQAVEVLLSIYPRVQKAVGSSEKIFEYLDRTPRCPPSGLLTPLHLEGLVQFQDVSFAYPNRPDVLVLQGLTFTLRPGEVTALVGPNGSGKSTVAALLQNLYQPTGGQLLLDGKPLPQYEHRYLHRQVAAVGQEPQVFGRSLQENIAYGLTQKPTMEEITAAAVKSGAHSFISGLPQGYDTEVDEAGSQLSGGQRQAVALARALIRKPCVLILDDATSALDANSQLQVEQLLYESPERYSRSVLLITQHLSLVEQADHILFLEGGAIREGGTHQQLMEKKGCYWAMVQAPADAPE
Description: (§1) Glycosylated ^125 I Peptide […] (SEQ ID NO: 6), Peptide […] (SEQ ID NO: 7), or Peptide […] (SEQ ID NO: 8) was recovered and measured. The peptide translocation assay was performed essentially as previously described (Neefjes et al., Science, 261:769 (1993); and Momburg et al., J. Exp. Med., 179:1613 (1994)). Briefly, 2.5-5.0×10^6 T2 cell (transfected or untransfected) were washed once with incubation buffer (130 mM KCl, 10 mM NaCl, 1 mM CaC2, 2 mM EDTA, 2 mM MgCl2, 5 mM Hepes, pH 7.3) and permeabilized for 10 minutes at 37° C. with streptolysin O (2 IU/ml) (Wellcome, Beckenham, UK) in 50 μl of incubation buffer. After further addition of 10 μl of 100 mM adenosine triphosphate, 10 μl of ^125 I-labeled peptide (~15 pM), and 30 μl of incubation buffer, cells were incubated for an additional 10 minutes at 37° C. Transport was terminated by the addition of 1 ml of 1% NP-40 detergent, after which nuclei were removed by centrifugation and glycosylated peptides were recovered using concanavalin A-Sepharose (Sigma, St. Louis, Mo.) and quantitated with a gamma counter (LKB-Wallac).
Differential peptide selectivity of the TAP1/TAP2 and TAP1/TAP2iso heterodimers was further investigated by competition experiments with ^125 I-labeled Peptide […] (SEQ ID NO: 6) and various unlabeled peptides: Peptide […] (SEQ ID NO: 6); Peptide […] (SEQ ID NO: 7); Peptide […] (SEQ ID NO: 8); Peptide […] (SEQ ID NO: 9), the S1-24 fragment of human adrenocorticotropic hormone); and Peptide […] (SEQ ID NO: 10), residues 22 to 30 (human insulin B chain). The iodinated 9-mer Peptide […] was translocated in the presence of different concentrations of unlabeled competition peptides. The glycosylated peptides were recovered by Con A-Sepharose and quantitated. […] (self); (6B) competition of ^125 I-Peptide […] with Peptide […]; (6C) competition of ^125 I-Peptide […] with Peptide […]; and (6D) competition of ^125 I-Peptide […] with Peptide […]; and (6E) competition of ^125 I-Peptide […] with Peptide […].

[2] = system: TAP1/TAP2iso heterodimer (compared with TAP1/TAP2); assay: translocation of 125I-labeled peptides into the ER of permeabilized T2 transfectants; type: cell-based, human; conditions: 125I-labeled glycosylated peptide recovered from streptolysin O permeabilized T2 transfectants; comparison in words
Description: 10 mM stock solutions of peptides were prepared in dimethyl sulfoxide. Peptides (25 μg) were directly iodinated at unique tyrosine residues with the use of chloramine T (Sigma, St. Louis, Mo.), and free iodine was removed by gel filtration using Sephadex G 10 (Pharmacia) column chromatography.
as §1

[3] = system: T1 cells (naturally co-express both TAP2 and TAP2iso); conditions: in words
[4] = target: T2, TAP1/TAP2 heterodimer (Homo sapiens, UniProt Q03518+Q03519); assay: competition with transport of 125I-Peptide RRYQNSTEL in TAP1/TAP2 transfectants; type: cell-based
T2 sequence (Q03518 1-748): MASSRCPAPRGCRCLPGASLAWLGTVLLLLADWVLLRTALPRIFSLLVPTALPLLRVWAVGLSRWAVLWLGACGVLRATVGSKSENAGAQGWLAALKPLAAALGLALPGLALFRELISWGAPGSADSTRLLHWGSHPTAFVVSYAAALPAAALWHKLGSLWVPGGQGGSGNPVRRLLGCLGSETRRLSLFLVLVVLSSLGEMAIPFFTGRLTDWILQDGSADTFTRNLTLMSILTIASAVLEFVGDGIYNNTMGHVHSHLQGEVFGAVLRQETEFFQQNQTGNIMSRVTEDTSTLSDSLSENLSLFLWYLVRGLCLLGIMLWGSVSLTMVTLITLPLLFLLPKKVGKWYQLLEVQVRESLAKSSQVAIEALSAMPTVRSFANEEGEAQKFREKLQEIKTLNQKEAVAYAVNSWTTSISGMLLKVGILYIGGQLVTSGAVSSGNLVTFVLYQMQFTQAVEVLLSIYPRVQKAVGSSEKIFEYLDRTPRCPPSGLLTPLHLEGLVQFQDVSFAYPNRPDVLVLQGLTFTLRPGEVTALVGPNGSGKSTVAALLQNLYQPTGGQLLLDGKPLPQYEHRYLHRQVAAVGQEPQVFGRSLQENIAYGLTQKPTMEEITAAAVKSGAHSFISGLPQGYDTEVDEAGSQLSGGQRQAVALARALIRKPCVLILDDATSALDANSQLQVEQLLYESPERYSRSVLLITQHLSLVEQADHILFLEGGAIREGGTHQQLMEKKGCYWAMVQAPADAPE
T2 sequence (Q03519 1-686 L359K/V379I): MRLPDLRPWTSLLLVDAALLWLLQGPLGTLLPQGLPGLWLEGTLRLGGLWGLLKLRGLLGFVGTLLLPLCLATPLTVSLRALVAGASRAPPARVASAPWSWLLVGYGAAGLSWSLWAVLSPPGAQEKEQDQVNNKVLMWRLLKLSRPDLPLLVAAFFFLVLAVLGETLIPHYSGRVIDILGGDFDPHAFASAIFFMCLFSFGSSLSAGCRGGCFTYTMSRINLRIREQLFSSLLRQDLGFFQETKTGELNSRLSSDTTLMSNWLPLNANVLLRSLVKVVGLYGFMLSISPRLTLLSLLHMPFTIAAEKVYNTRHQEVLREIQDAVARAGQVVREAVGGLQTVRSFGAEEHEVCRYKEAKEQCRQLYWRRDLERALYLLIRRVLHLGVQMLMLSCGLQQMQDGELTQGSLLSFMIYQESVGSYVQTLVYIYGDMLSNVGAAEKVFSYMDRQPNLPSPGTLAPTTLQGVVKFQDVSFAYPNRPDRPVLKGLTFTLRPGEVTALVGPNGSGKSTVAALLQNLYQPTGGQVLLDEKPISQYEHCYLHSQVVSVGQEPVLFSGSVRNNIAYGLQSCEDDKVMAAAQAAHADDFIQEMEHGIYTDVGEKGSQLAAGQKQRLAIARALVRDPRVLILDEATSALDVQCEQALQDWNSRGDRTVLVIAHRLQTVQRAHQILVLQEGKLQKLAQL
Description: as §1
Differential peptide selectivity of the TAP1/TAP2 and TAP1/TAP2iso heterodimers was further investigated by competition experiments with ^125 I-labeled Peptide […] (SEQ ID NO: 6) and various unlabeled peptides: Peptide […] […] The glycosylated peptides were recovered by Con A-Sepharose and quantitated. […]

[5] = system: HLA class I (A2) on T2 cells; assay: restoration of surface expression of HLA class I (A2) on transfected T2 cells, flow cytometry; type: cell-based, human; conditions: T2 cells transfected with the named cDNAs
Description: Plasmid DNAs were prepared using MAXI-PREP kits (Qiagen). TAP1- and TAP2-deficient T2 cells (donated by P. Cresswell, Howard Hughes Medical Institute, Yale University) (1-2×10^7 cells/ml) were transfected by electroporation with 10 μg of TAP1 and TAP2 or TAP2iso linear plasmid DNA in a 0.4-cm cuvette at 260 V and 960 μF. Subcloning and selection of transfectants were performed by culturing in the presence of hygromycin (250 μg/ml) or histidinol ([…]) for the PREP 4 and PREP8 vectors, respectively.
Immune complexes were detected with fluorescein isothiocyanate-conjugated goat anti-mouse IgG antibodies (Coulter, Hialeah, Fla.) and an Epics Elite flow cytometer (Coulter).
T2 cells were transfected with TAP1 cDNA in combination with TAP2 or TAPiso cDNAs as described above.

[6] = system: HLA class I molecules in T2 cells; assay: HLA class I maturation, endo H sensitivity, pulse-chase in transfected T2 cells; type: cell-based, human; conditions: expressed with TAP1 in T2 cells, relative to untransfected T2 cells
Description: A preferred method of measuring the rate at which MHC class I antigen complexes exit the ER is through the quantification of MHC class I proteins of the Golgi apparatus sensitive to endoglycosidase H (endo H). Glycosylation of MHC class I proteins in the Golgi apparatus results in an increase in their molecular mass and an increase in resistance of MHC class I-linked glycans to endo H. By [^35 S]methionine pulse-labeling TAP- or TAPiso-expressing cell cultures and chasing with unlabeled methionine at various times, the rate of MHC class I maturation in the ER can be gauged by observing differences in endo H sensitivity, e.g., compared with a TAP-deficient cell line such as T2.
High density cells (1×10^8 cells/ml) were labeled for 15 minutes in the presence of 500 μCi [^35 S]methionine (Amersham), and then chased at the indicated times in the presence of 10 mM unlabeled methionine.
Cells were lysed in an ice-cold lysis buffer, and lysates were incubated overnight at 4° C. with protein A Sepharose beads (Pharmacia) and normal rabbit serum (1:200 dilution). The beads were removed by centrifugation and the resulting supernatant was incubated for 12 hours at 4° C. with protein A beads and monoclonal antibody W6/32 (American Type Culture Collection (ATCC) accession no. HB 95), which recognizes HLA class I molecules. […]

[7] = unlabeled peptide against transport of 125I-Peptide RRYQNSTEL, read-out: median inhibitory concentration (IC50)

In the case of RRYQNSTEL [Peptide RRYQNSTEL], the IC50 [1, 7] is reported as ~150 nM, the “amount of translocated peptide, TAP1/TAP2iso compared with TAP1/TAP2” value [2] is reported as “transported to similar extents; also recorded: translocated with equal efficiency” and the “transportation of test peptides (relative IC50)” value [3] is reported as “equal efficiency”. The IC50 [4, 7] was ~150 nM.

SYSMEHGRWGKPVGKKRRPVKVYP was tested, and the “inhibition of transport of Peptide RRYQNSTEL” value ([1]; in words) was “did not inhibit” and the “inhibition of transport of Peptide RRYQNSTEL” value ([4]; in words) was “did not inhibit”.

B1: TAP2: previously known TAP2 subunit (clone 0121, TAP2 F allele) (protein)
chain: MRLPDLRPWTSLLLVDAALLWLLQGPLGTLLPQGLPGLWLEGTLRLGGLWGLLKLRGLLGFVGTLLLPLCLATPLTVSLRALVAGASRAPPARVASAPWSWLLVGYGAAGLSWSLWAVLSPPGAQEKEQDQVNNKVLMWRLLKLSRPDLPLLVAAFFFLVLAVLGETLIPHYSGRVIDILGGDFDPHAFASAIFFMCLFSFGSSLSAGCRGGCFTYTMSRINLRIREQLFSSLLRQDLGFFQETKTGELNSRLSSDTTLMSNWLPLNANVLLRSLVKVVGLYGFMLSISPRLTLLSLLHMPFTIAAEKVYNTRHQEVLREIQDAVARAGQVVREAVGGLQTVRSFGAEEHEVCRYKEAKEQCRQLYWRRDLERALYLLIRRVLHLGVQMLMLSCGLQQMQDGELTQGSLLSFMIYQESVGSYVQTLVYIYGDMLSNVGAAEKVFSYMDRQPNLPSPGTLAPTTLQGVVKFQDVSFAYPNRPDRPVLKGLTFTLRPGEVTALVGPNGSGKSTVAALLQNLYQPTGGQVLLDEKPISQYEHCYLHSQVVSVGQEPVLFSGSVRNNIAYGLQSCEDDKVMAAAQAAHADDFIQEMEHGIYTDVGEKGSQLAAGQKQRLAIARALVRDPRVLILDEATSALDVQCEQALQDWNSRGDRTVLVIAHRLQTVQRAHQILVLQEGKLQKLAQL
B1 was tested, and the “Mean fluorescence of HLA class 1 (A2) Mean ± SD” value ([5]; four separate experiments, at least three stable clones) was 6.11 ± 1.09 and the “HLA class I maturation as reflected in decreasing endo H sensitivity” value [6] was “increasing HLA class I maturation”.

B2: TAP2iso: TAP2 splice variant lacking exon 11 and containing exon 12; 653 amino acids (protein)
chain: MRLPDLRPWTSLLLVDAALLWLLQGPLGTLLPQGLPGLWLEGTLRLGGLWGLLKLRGLLGFVGTLLLPLCLATPLTVSLRALVAGASRAPPARVASAPWSWLLVGYGAAGLSWSLWAVLSPPGAQEKEQDQVNNKVLMWRLLKLSRPDLPLLVAAFFFLVLAVLGETLIPHYSGRVIDILGGDFDPHAFASAIFFMCLFSFGSSLSAGCRGGCFTYTMSRINLRIREQLFSSLLRQDLGFFQETKTGELNSRLSSDTTLMSNWLPLNANVLLRSLVKVVGLYGFMLSISPRLTLLSLLHMPFTIAAEKVYNTRHQEVLREIQDAVARAGQVVREAVGGLQTVRSFGAEEHEVCRYKEAKEQCRQLYWRRDLERALYLLIRRVLHLGVQMLMLSCGLQQMQDGELTQGSLLSFMIYQESVGSYVQTLVYIYGDMLSNVGAAEKVFSYMDRQPNLPSPGTLAPTTLQGVVKFQDVSFAYPNRPDRPVLKGLTFTLRPGEVTALVGPNGSGKSTVAALLQNLYQPTGGQVLLDEKPISQYEHCYLHSQVVSVGQEPVLFSGSVRNNIAYGLQSCEDDKVMAAAQAAHADDFIQEMEHGIYTDVGEKGSQLAAGQKQRLAIARALVRDPRVLILDEATSALDVQCEQAKTLWKFMIF
B2 was tested, and the “surface expression of HLA/MHC class I” value ([5]; in words) was “no effect” and the “HLA class I maturation as reflected in decreasing endo H sensitivity” value [6] was “increasing HLA class I maturation”.
